Data as given in PubChem BioAssay (NCI).
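96-well plates; 48 h exposure; 5 concentrations. Endpoints by linear interpolation between flanking doses. Not reached: highest tested concentration assigned. TGI denotes the concentration required for complete inhibition of growth.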

Experiments:
Assay in all cases: growth of human tumour cells (NCI), 48 h
HCT-116 colon = system: HCT-116 colon
HCT-15 colon = system: HCT-15 colon
KM12 colon = system: KM12 colon
NCI-H522 lung = system: NCI-H522 lung
MOLT-4 leukemia = system: MOLT-4 leukemia
SR leukemia = system: SR leukemia
RXF 393 renal = system: RXF 393 renal
MDA-MB-231 breast = system: MDA-MB-231 breast
SN12C renal = system: SN12C renal
SK-OV-3 ovarian = system: SK-OV-3 ovarian
CAKI-1 renal = system: CAKI-1 renal
RPMI-8226 leukemia = system: RPMI-8226 leukemia
HS 578T breast = system: HS 578T breast
CCRF-CEM leukemia = system: CCRF-CEM leukemia
LOX IMVI melanoma = system: LOX IMVI melanoma
UO-31 renal = system: UO-31 renal
OVCAR-5 ovarian = system: OVCAR-5 ovarian
HT29 colon = system: HT29 colon
MDA-MB-435 = system: MDA-MB-435
T-47D breast = system: T-47D breast
EKVX NSCLC = system: EKVX NSCLC
MALME-3M melanoma = system: MALME-3M melanoma
SF-295 CNS = system: SF-295 CNS
SF-268 CNS = system: SF-268 CNS
HCC-2998 colon = system: HCC-2998 colon
COLO 205 colon = system: COLO 205 colon
M14 melanoma = system: M14 melanoma
SNB-19 CNS = system: SNB-19 CNS
TK-10 renal = system: TK-10 renal
UACC-62 melanoma = system: UACC-62 melanoma
NCI-H460 lung = system: NCI-H460 lung
BT-549 breast = system: BT-549 breast
SF-539 CNS = system: SF-539 CNS
OVCAR-8 ovarian = system: OVCAR-8 ovarian
SK-MEL-28 melanoma = system: SK-MEL-28 melanoma
SNB-75 CNS = system: SNB-75 CNS
UACC-257 melanoma = system: UACC-257 melanoma
MCF7 breast = system: MCF7 breast
MDA-N = system: MDA-N
ACHN renal = system: ACHN renal
U251 CNS = system: U251 CNS
A498 renal = system: A498 renal
DU-145 prostate = system: DU-145 prostate
OVCAR-4 ovarian = system: OVCAR-4 ovarian
IGROV1 ovarian = system: IGROV1 ovarian
786-0 renal = system: 786-0 renal
SK-MEL-5 melanoma = system: SK-MEL-5 melanoma
HOP-92 NSCLC = system: HOP-92 NSCLC
NCI-H23 lung = system: NCI-H23 lung
NCI-H226 lung = system: NCI-H226 lung
SW-620 colon = system: SW-620 colon
K-562 leukemia = system: K-562 leukemia
OVCAR-3 ovarian = system: OVCAR-3 ovarian
A549 NSCLC = system: A549 NSCLC
NCI/ADR-RES ovarian = system: NCI/ADR-RES ovarian
HOP-62 NSCLC = system: HOP-62 NSCLC
HL-60(TB) leukemia = system: HL-60(TB) leukemia
SK-MEL-2 melanoma = system: SK-MEL-2 melanoma
PC-3 prostate = system: PC-3 prostate

`O=C1SC(SCc2ccccc2)=NC12CC2c1ccccc1` (configuration not stated) gave a TGI (HCT-116 colon) of 31.4 µM, a TGI (HCT-15 colon) of 51.4 µM and a TGI (KM12 colon) of 33.2 µM. It also gave a TGI (NCI-H522 lung) of 33.5 µM, a TGI (MOLT-4 leukemia) of 10.3 µM and a TGI (SR leukemia) of 52.5 µM. It also gave a TGI (RXF 393 renal) of 37.2 µM, a TGI (MDA-MB-231 breast) of 43.5 µM and a TGI (SN12C renal) of 44.3 µM. For the same compound, the TGI (SK-OV-3 ovarian) was > 100 µM, the TGI (CAKI-1 renal) was 40.5 µM and the TGI (RPMI-8226 leukemia) was 48.3 µM. The TGI (HS 578T breast) was 68.4 µM, the TGI (CCRF-CEM leukemia) was 11.1 µM and the TGI (LOX IMVI melanoma) was 38 µM. The TGI (UO-31 renal) was 41.2 µM, the TGI (OVCAR-5 ovarian) was 38.9 µM and the TGI (HT29 colon) was 54 µM. For the same compound, the TGI (MDA-MB-435) was 59.3 µM, the TGI (T-47D breast) was > 100 µM and the TGI (EKVX NSCLC) was 44 µM. For the same compound, the TGI (MALME-3M melanoma) was 34.8 µM, the TGI (SF-295 CNS) was 44.8 µM and the TGI (SF-268 CNS) was 70.1 µM. The TGI (HCC-2998 colon) was 28.8 µM, the TGI (COLO 205 colon) was 61.3 µM and the TGI (M14 melanoma) was 37.8 µM. The TGI (SNB-19 CNS) was 71.1 µM, the TGI (TK-10 renal) was 81.1 µM and the TGI (UACC-62 melanoma) was 32.8 µM. For the same compound, the TGI (NCI-H460 lung) was 41.4 µM, the TGI (BT-549 breast) was 52.8 µM and the TGI (SF-539 CNS) was 37.7 µM. The TGI (OVCAR-8 ovarian) was 41.8 µM, the TGI (SK-MEL-28 melanoma) was 41.5 µM and the TGI (SNB-75 CNS) was 71.6 µM. For the same compound, the TGI (UACC-257 melanoma) was 38.5 µM, the TGI (MCF7 breast) was 40.1 µM and the TGI (MDA-N) was 49 µM. For the same compound, the TGI (ACHN renal) was 38.2 µM, the TGI (U251 CNS) was 39 µM and the TGI (A498 renal) was 65.1 µM. The TGI (DU-145 prostate) was > 81 µM, the TGI (OVCAR-4 ovarian) was 51.7 µM and the TGI (IGROV1 ovarian) was 52.6 µM. For the same compound, the TGI (786-0 renal) was 39.2 µM, the TGI (SK-MEL-5 melanoma) was 34.1 µM and the TGI (HOP-92 NSCLC) was 53.1 µM. For the same compound, the TGI (NCI-H23 lung) was 42 µM, the TGI (NCI-H226 lung) was 52 µM and the TGI (SW-620 colon) was 53.3 µM. The TGI (K-562 leukemia) was 55.3 µM, the TGI (OVCAR-3 ovarian) was > 72.7 µM and the TGI (A549 NSCLC) was 81.8 µM. The TGI (NCI/ADR-RES ovarian) was 63 µM, the TGI (HOP-62 NSCLC) was > 82.8 µM and the TGI (HL-60(TB) leukemia) was 21.5 µM. The TGI (SK-MEL-2 melanoma) was 40.1 µM and the TGI (PC-3 prostate) was > 66.8 µM.

For `COc1ccc(C2c3cc4c(cc3OC3(OC)COC(=O)C23)OCO4)c(OC)c1` (configuration not stated), the TGI (HCT-116 colon) was > 90.7 µM, the TGI (HCT-15 colon) was > 100 µM and the TGI (KM12 colon) was 40 µM. For the same compound, the TGI (NCI-H522 lung) was > 22.5 µM, the TGI (MOLT-4 leukemia) was 71.2 µM and the TGI (SR leukemia) was > 100 µM. For the same compound, the TGI (RXF 393 renal) was 35.4 µM, the TGI (MDA-MB-231 breast) was 99.5 µM and the TGI (SN12C renal) was > 100 µM. The TGI (SK-OV-3 ovarian) was > 86 µM, the TGI (CAKI-1 renal) was > 100 µM and the TGI (RPMI-8226 leukemia) was > 45.5 µM. The TGI (HS 578T breast) was 27.1 µM, the TGI (CCRF-CEM leukemia) was > 46.8 µM and the TGI (LOX IMVI melanoma) was > 100 µM. The TGI (UO-31 renal) was > 100 µM, the TGI (OVCAR-5 ovarian) was > 100 µM and the TGI (HT29 colon) was 15.1 µM. For the same compound, the TGI (MDA-MB-435) was 5.47 µM, the TGI (T-47D breast) was > 100 µM and the TGI (EKVX NSCLC) was > 73.1 µM. The TGI (MALME-3M melanoma) was > 100 µM, the TGI (SF-295 CNS) was 98.9 µM and the TGI (SF-268 CNS) was > 100 µM. The TGI (HCC-2998 colon) was > 100 µM, the TGI (COLO 205 colon) was 51.7 µM and the TGI (M14 melanoma) was 25.8 µM. For the same compound, the TGI (SNB-19 CNS) was > 100 µM, the TGI (TK-10 renal) was > 95.6 µM and the TGI (UACC-62 melanoma) was > 85.9 µM. The TGI (NCI-H460 lung) was > 100 µM, the TGI (BT-549 breast) was > 100 µM and the TGI (SF-539 CNS) was 21.5 µM. For the same compound, the TGI (OVCAR-8 ovarian) was > 100 µM, the TGI (SK-MEL-28 melanoma) was > 100 µM and the TGI (SNB-75 CNS) was 45.5 µM. The TGI (UACC-257 melanoma) was > 100 µM, the TGI (MCF7 breast) was 90.4 µM and the TGI (MDA-N) was 5.24 µM. The TGI (ACHN renal) was > 100 µM, the TGI (U251 CNS) was > 100 µM and the TGI (A498 renal) was > 92.9 µM. The TGI (DU-145 prostate) was > 100 µM, the TGI (OVCAR-4 ovarian) was > 100 µM and the TGI (IGROV1 ovarian) was > 100 µM. The TGI (786-0 renal) was > 61.3 µM, the TGI (SK-MEL-5 melanoma) was > 90.1 µM and the TGI (HOP-92 NSCLC) was 97.6 µM. For the same compound, the TGI (NCI-H23 lung) was > 100 µM, the TGI (NCI-H226 lung) was > 100 µM and the TGI (SW-620 colon) was > 100 µM. The TGI (K-562 leukemia) was 34.4 µM, the TGI (OVCAR-3 ovarian) was > 63 µM and the TGI (A549 NSCLC) was > 100 µM. The TGI (NCI/ADR-RES ovarian) was 34.5 µM, the TGI (HOP-62 NSCLC) was > 100 µM and the TGI (HL-60(TB) leukemia) was 9.31 µM. For the same compound, the TGI (SK-MEL-2 melanoma) was > 100 µM and the TGI (PC-3 prostate) was > 100 µM.

With `O=C(O)C1C2c3ccccc3C(c3ccccc32)C1C(=O)NCC1CC1` (configuration not stated) the TGI (HCT-116 colon) was > 100 µM, the TGI (HCT-15 colon) was > 100 µM and the TGI (KM12 colon) was > 100 µM. For the same compound, the TGI (NCI-H522 lung) was 86.9 µM, the TGI (MOLT-4 leukemia) was > 100 µM and the TGI (SR leukemia) was > 100 µM. For the same compound, the TGI (RXF 393 renal) was > 100 µM, the TGI (MDA-MB-231 breast) was > 100 µM and the TGI (SN12C renal) was > 100 µM. The TGI (SK-OV-3 ovarian) was > 100 µM, the TGI (CAKI-1 renal) was > 100 µM and the TGI (RPMI-8226 leukemia) was 85.3 µM. The TGI (HS 578T breast) was > 100 µM, the TGI (CCRF-CEM leukemia) was 96.8 µM and the TGI (LOX IMVI melanoma) was > 100 µM. For the same compound, the TGI (UO-31 renal) was > 100 µM, the TGI (OVCAR-5 ovarian) was > 100 µM and the TGI (HT29 colon) was > 100 µM. The TGI (MDA-MB-435) was > 100 µM, the TGI (T-47D breast) was > 100 µM and the TGI (EKVX NSCLC) was > 100 µM. For the same compound, the TGI (MALME-3M melanoma) was > 100 µM, the TGI (SF-295 CNS) was > 100 µM and the TGI (SF-268 CNS) was > 100 µM. For the same compound, the TGI (HCC-2998 colon) was 55.1 µM, the TGI (COLO 205 colon) was > 100 µM and the TGI (M14 melanoma) was > 100 µM. The TGI (SNB-19 CNS) was > 100 µM, the TGI (TK-10 renal) was > 100 µM and the TGI (UACC-62 melanoma) was > 100 µM. The TGI (NCI-H460 lung) was > 100 µM, the TGI (BT-549 breast) was > 100 µM and the TGI (SF-539 CNS) was > 100 µM. The TGI (OVCAR-8 ovarian) was > 100 µM, the TGI (SK-MEL-28 melanoma) was > 100 µM and the TGI (SNB-75 CNS) was > 100 µM. For the same compound, the TGI (UACC-257 melanoma) was 70.5 µM, the TGI (MCF7 breast) was > 100 µM and the TGI (MDA-N) was > 100 µM. For the same compound, the TGI (ACHN renal) was > 100 µM, the TGI (U251 CNS) was > 100 µM and the TGI (A498 renal) was > 100 µM. For the same compound, the TGI (DU-145 prostate) was > 100 µM, the TGI (OVCAR-4 ovarian) was > 100 µM and the TGI (IGROV1 ovarian) was > 100 µM. For the same compound, the TGI (786-0 renal) was > 100 µM, the TGI (SK-MEL-5 melanoma) was > 100 µM and the TGI (HOP-92 NSCLC) was > 100 µM. For the same compound, the TGI (NCI-H23 lung) was > 100 µM, the TGI (NCI-H226 lung) was > 100 µM and the TGI (SW-620 colon) was > 100 µM. The TGI (K-562 leukemia) was > 100 µM, the TGI (OVCAR-3 ovarian) was > 100 µM and the TGI (A549 NSCLC) was > 100 µM. For the same compound, the TGI (NCI/ADR-RES ovarian) was > 100 µM, the TGI (HOP-62 NSCLC) was > 100 µM and the TGI (HL-60(TB) leukemia) was 77.2 µM. The TGI (SK-MEL-2 melanoma) was > 100 µM and the TGI (PC-3 prostate) was > 100 µM.
